Legend:
oat, wild [1] = test: Test C preemergence; assay type: in vivo, Avena fatua
Outline: (§1)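 Soil-applied (pre) and foliar (post, 1–2 leaf, 2–10 cm) sprays; surfactant-containing non-phytotoxic solvent vehicle; loam/sand substrate. Readout: visual % control at 10 d, greenhouse, versus untreated.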

foxtail, giant [2] = test: Test C preemergence; assay type: in vivo, Setaria faberi
Outline: as §1

ragweed [3] = test: Test C preemergence; assay type: in vivo, Ambrosia artemisiifolia
Outline: as §1

ryegrass, Italian [4] = test: Test C postemergence; assay type: in vivo, Lolium multiflorum; details: 10 days, 0 to 100 scale (0 no effect, 100 complete control)
Outline: as §1

blackgrass [5] = test: Test C postemergence; assay type: in vivo, Alopecurus myosuroides; details: 10 days, 0 to 100 scale (0 no effect, 100 complete control)
Outline: as §1

barnyardgrass [6] = test: Test C postemergence; assay type: in vivo, Echinochloa crusgalli; details: 10 days, 0 to 100 scale (0 no effect, 100 complete control)
Outline: as §1

soybean [7] = test: Test C preemergence; assay type: in vivo, Glycine max
Outline: as §1

ducksalad = test: Test D flooded paddy test; assay type: in vivo, Heteranthera limosa; details: 250 g ai/ha, applied to paddy water, visual rating after 13 to 14 days, scale 0 to 100 (0 no effect, 100 complete control)
Outline: (§2)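 2-leaf plants; flood 3 cm above soil; compound dosed into paddy water; greenhouse 13–14 d; visual rating vs controls, 0–100 (100 = complete control); dash = not tested.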

ryegrass, Italian [8] = test: Test C preemergence; assay type: in vivo, Lolium multiflorum
Outline: as §1

horseweed = test: Test C postemergence; assay type: in vivo, Erigeron canadensis; details: 10 days, 0 to 100 scale (0 no effect, 100 complete control)
Outline: as §1

corn [9] = test: Test C postemergence; assay type: in vivo, Zea mays; details: 10 days, 0 to 100 scale (0 no effect, 100 complete control)
Outline: as §1

rice = test: Test D flooded paddy test; assay type: in vivo, Oryza sativa; details: 250 g ai/ha, applied to paddy water, visual rating after 13 to 14 days, scale 0 to 100 (0 no effect, 100 complete control)
Outline: as §2

soybean [10] = test: Test C postemergence; assay type: in vivo, Glycine max; details: 10 days, 0 to 100 scale (0 no effect, 100 complete control)
Outline: as §1

wheat [11] = test: Test C postemergence; assay type: in vivo, Triticum aestivum; details: 10 days, 0 to 100 scale (0 no effect, 100 complete control)
Outline: as §1

sedge, umbrella = test: Test D flooded paddy test; assay type: in vivo, Cyperus difformis; details: 250 g ai/ha, applied to paddy water, visual rating after 13 to 14 days, scale 0 to 100 (0 no effect, 100 complete control)
Outline: as §2

oat, wild [12] = test: Test C postemergence; assay type: in vivo, Avena fatua; details: 10 days, 0 to 100 scale (0 no effect, 100 complete control)
Outline: as §1

blackgrass [13] = test: Test C preemergence; assay type: in vivo, Alopecurus myosuroides
Outline: as §1

corn [14] = test: Test C preemergence; assay type: in vivo, Zea mays
Outline: as §1

barnyardgrass [15] = test: Test C preemergence; assay type: in vivo, Echinochloa crusgalli
Outline: as §1

pigweed, palmer [16] = test: Test C postemergence; assay type: in vivo, Amaranthus palmeri; details: 10 days, 0 to 100 scale (0 no effect, 100 complete control)
Outline: as §1

ragweed [17] = test: Test C postemergence; assay type: in vivo, Ambrosia artemisiifolia; details: 10 days, 0 to 100 scale (0 no effect, 100 complete control)
Outline: as §1

galium = test: Test C postemergence; assay type: in vivo, Galium aparine; details: 10 days, 0 to 100 scale (0 no effect, 100 complete control)
Outline: as §1

pigweed, palmer [18] = test: Test C preemergence; assay type: in vivo, Amaranthus palmeri
Outline: as §1

barnyardgrass [19] = test: Test D flooded paddy test; assay type: in vivo, Echinochloa crus-galli; details: 250 g ai/ha, applied to paddy water, visual rating after 13 to 14 days, scale 0 to 100 (0 no effect, 100 complete control)
Outline: as §2

foxtail, giant [20] = test: Test C postemergence; assay type: in vivo, Setaria faberi; details: 10 days, 0 to 100 scale (0 no effect, 100 complete control)
Outline: as §1

wheat [21] = test: Test C preemergence; assay type: in vivo, Triticum aestivum
Outline: as §1

kochia [22] = test: Test C preemergence; assay type: in vivo, Bassia scoparia
Outline: as §1

kochia [23] = test: Test C postemergence; assay type: in vivo, Bassia scoparia; details: 10 days, 0 to 100 scale (0 no effect, 100 complete control)
Outline: as §1

[24] = 500 g ai/ha, preemergence, 0 to 100 scale (0 no effect, 100 complete control)
[25] = Preemergence, 125 g ai/ha, 0 to 100 scale, 0 no effect, 100 complete control

Cc1ncn(-c2cc(C(=O)N3CC(C(F)(F)F)Oc4c(Cl)cccc43)ccn2)n1 (stereo not shown) [Compound 321]
Oat, Wild plant response rating (oat, wild [1]; [24]): 80 | Plant response rating, Oat, Wild (oat, wild [1]; [25]): 0 | Foxtail, Giant plant response rating (foxtail, giant [2]; [24]): 100 | Plant response rating, Foxtail, Giant (foxtail, giant [2]; [25]): 100 | Ragweed plant response rating (ragweed [3]; [24]): 80 | Plant response rating, Ragweed (ragweed [3]; [25]): 0 | Plant response rating, Ryegrass, Italian (ryegrass, Italian [4]; 500 g ai/ha, postemergence): 80 | Plant response rating, Ryegrass, Italian (ryegrass, Italian [4]; Postemergence, 125 g ai/ha): 60 | Plant response rating, Blackgrass (blackgrass [5]; 500 g ai/ha, postemergence): 90 | Plant response rating, Blackgrass (blackgrass [5]; Postemergence, 125 g ai/ha): 60 | Plant response rating, Barnyardgrass (barnyardgrass [6]; 500 g ai/ha, postemergence): 90 | Plant response rating, Barnyardgrass (barnyardgrass [6]; Postemergence, 125 g ai/ha): 20 | Soybean plant response rating (soybean [7]; [24]): 40 | Plant response rating, Soybean (soybean [7]; [25]): 0 | Plant response rating, Ducksalad (Flood) (ducksalad): 0 | Ryegrass, Italian plant response rating (ryegrass, Italian [8]; [24]): 100 | Plant response rating, Ryegrass, Italian (ryegrass, Italian [8]; [25]): 90 | Plant response rating, Horseweed (horseweed; 500 g ai/ha, postemergence): 0 | Plant response rating, Horseweed (horseweed; Postemergence, 125 g ai/ha): 0 | Plant response rating, Corn (corn [9]; 500 g ai/ha, postemergence): 90 | Plant response rating, Corn (corn [9]; Postemergence, 125 g ai/ha): 50 | Plant response rating, Rice (Flood) (rice): 0 | Plant response rating, Soybean (soybean [10]; 500 g ai/ha, postemergence): 100 | Plant response rating, Soybean (soybean [10]; Postemergence, 125 g ai/ha): 90 | Plant response rating, Wheat (wheat [11]; 500 g ai/ha, postemergence): 80 | Plant response rating, Wheat (wheat [11]; Postemergence, 125 g ai/ha): 20 | Plant response rating, Sedge, Umbrella (Flood) (sedge, umbrella): 0 | Plant response rating, Oat, Wild (oat, wild [12]; 500 g ai/ha, postemergence): 90 | Plant response rating, Oat, Wild (oat, wild [12]; Postemergence, 125 g ai/ha): 10 | Blackgrass plant response rating (blackgrass [13]; [24]): 90 | Plant response rating, Blackgrass (blackgrass [13]; [25]): 80 | Corn plant response rating (corn [14]; [24]): 40 | Plant response rating, Corn (corn [14]; [25]): 10 | Barnyardgrass plant response rating (barnyardgrass [15]; [24]): 100 | Plant response rating, Barnyardgrass (barnyardgrass [15]; [25]): 40 | Plant response rating, Pigweed, Palmer (pigweed, palmer [16]; 500 g ai/ha, postemergence): 60 | Plant response rating, Pigweed, Palmer (pigweed, palmer [16]; Postemergence, 125 g ai/ha): 10 | Plant response rating, Ragweed (ragweed [17]; 500 g ai/ha, postemergence): 40 | Plant response rating, Ragweed (ragweed [17]; Postemergence, 125 g ai/ha): 30 | Plant response rating, Galium (galium; 500 g ai/ha, postemergence): 100 | Plant response rating, Galium (galium; Postemergence, 125 g ai/ha): 100 | Pigweed, Palmer plant response rating (pigweed, palmer [18]; [24]): 100 | Plant response rating, Pigweed, Palmer (pigweed, palmer [18]; [25]): 50 | Plant response rating, Barnyardgrass (Flood) (barnyardgrass [19]): 0 | Plant response rating, Foxtail, Giant (foxtail, giant [20]; 500 g ai/ha, postemergence): 90 | Plant response rating, Foxtail, Giant (foxtail, giant [20]; Postemergence, 125 g ai/ha): 70 | Wheat plant response rating (wheat [21]; [24]): 30 | Plant response rating, Wheat (wheat [21]; [25]): 10 | Kochia plant response rating (kochia [22]; [24]): 90 | Plant response rating, Kochia (kochia [22]; [25]): 20 | Plant response rating, Kochia (kochia [23]; 500 g ai/ha, postemergence): 80 | Plant response rating, Kochia (kochia [23]; Postemergence, 125 g ai/ha): 60

Source: US20260262643A1, “HERBICIDAL BENZOXAZINES” (FMC CORPORATION, priority 2022, published 2026)
